Laboratory results as given in PubChem BioAssay (NCI).
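Where inhibition never reached the appropriate level, the endpoint shown equals the highest concentration tested. Otherwise, values were interpolated linearly from a five-concentration, 48-hour dose response in 96-well plates. GI50 is the concentration that inhibits growth by half. TGI: total growth inhibition.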

Legend:
Assay in all cases: NCI anticancer screen, dose series, 48 h
A549 NSCLC = test system: A549 NSCLC
SF-539 CNS = test system: SF-539 CNS
OVCAR-4 ovarian = test system: OVCAR-4 ovarian
KM20L2 colon = test system: KM20L2 colon
NCI-H23 lung = test system: NCI-H23 lung
M14 melanoma = test system: M14 melanoma
HCT-116 colon = test system: HCT-116 colon
MALME-3M melanoma = test system: MALME-3M melanoma
CAKI-1 renal = test system: CAKI-1 renal
EKVX NSCLC = test system: EKVX NSCLC
COLO 205 colon = test system: COLO 205 colon
UACC-257 melanoma = test system: UACC-257 melanoma
SN12C renal = test system: SN12C renal
KM12 colon = test system: KM12 colon
LXFL 529 NSCLC = test system: LXFL 529 NSCLC
DMS 114 small cell lung = test system: DMS 114 small cell lung
MOLT-4 leukemia = test system: MOLT-4 leukemia
HCT-15 colon = test system: HCT-15 colon
M19-MEL melanoma = test system: M19-MEL melanoma
UACC-62 melanoma = test system: UACC-62 melanoma
RPMI-8226 leukemia = test system: RPMI-8226 leukemia
SF-295 CNS = test system: SF-295 CNS
HT29 colon = test system: HT29 colon
SK-MEL-2 melanoma = test system: SK-MEL-2 melanoma
SW-620 colon = test system: SW-620 colon
SNB-19 CNS = test system: SNB-19 CNS
K-562 leukemia = test system: K-562 leukemia
DLD-1 colon = test system: DLD-1 colon
SK-MEL-5 melanoma = test system: SK-MEL-5 melanoma
UO-31 renal = test system: UO-31 renal
IGROV1 ovarian = test system: IGROV1 ovarian
SK-OV-3 ovarian = test system: SK-OV-3 ovarian
OVCAR-8 ovarian = test system: OVCAR-8 ovarian
HOP-18 NSCLC = test system: HOP-18 NSCLC
ACHN renal = test system: ACHN renal
A498 renal = test system: A498 renal
TK-10 renal = test system: TK-10 renal
HOP-62 NSCLC = test system: HOP-62 NSCLC
HCC-2998 colon = test system: HCC-2998 colon
SK-MEL-28 melanoma = test system: SK-MEL-28 melanoma
DMS 273 small cell lung = test system: DMS 273 small cell lung
U251 CNS = test system: U251 CNS
SF-268 CNS = test system: SF-268 CNS
HL-60(TB) leukemia = test system: HL-60(TB) leukemia
786-0 renal = test system: 786-0 renal
NCI-H460 lung = test system: NCI-H460 lung
NCI-H522 lung = test system: NCI-H522 lung
RXF 393 renal = test system: RXF 393 renal
OVCAR-3 ovarian = test system: OVCAR-3 ovarian
RXF-631 renal = test system: RXF-631 renal
SNB-78 CNS = test system: SNB-78 CNS
SNB-75 CNS = test system: SNB-75 CNS
CCRF-CEM leukemia = test system: CCRF-CEM leukemia

Work on O=C(C=Nc1ccccc1S)c1ccco1 yielded a TGI (A549 NSCLC) of 22.4 µM, a TGI (SF-539 CNS) of 27.3 µM and a TGI (OVCAR-4 ovarian) of 26.4 µM. For the same molecule, the TGI (KM20L2 colon) was 34.7 µM, the TGI (NCI-H23 lung) was 15.6 µM and the GI50 (M14 melanoma) was 15 µM. For the same molecule, the TGI (M14 melanoma) was 28.7 µM, the TGI (HCT-116 colon) was 10.4 µM and the TGI (MALME-3M melanoma) was 35.1 µM. The TGI (CAKI-1 renal) was 33.7 µM, the TGI (EKVX NSCLC) was 30.2 µM and the TGI (COLO 205 colon) was 32.1 µM. The TGI (UACC-257 melanoma) was 32.1 µM, the TGI (SN12C renal) was 21.5 µM and the TGI (KM12 colon) was 31.3 µM. For the same molecule, the GI50 (LXFL 529 NSCLC) was 4.57 µM, the TGI (LXFL 529 NSCLC) was 15.9 µM and the TGI (DMS 114 small cell lung) was 31 µM. The TGI (MOLT-4 leukemia) was 27.5 µM, the TGI (HCT-15 colon) was 27.4 µM and the TGI (M19-MEL melanoma) was 27 µM. For the same molecule, the TGI (UACC-62 melanoma) was 29.5 µM, the TGI (RPMI-8226 leukemia) was 46.1 µM and the TGI (SF-295 CNS) was 18.8 µM. It also gave a TGI (HT29 colon) of 37.7 µM, a TGI (SK-MEL-2 melanoma) of 33.1 µM and a TGI (SW-620 colon) of 32.8 µM. The TGI (SNB-19 CNS) was 16.3 µM, the TGI (K-562 leukemia) was 45.8 µM and the TGI (DLD-1 colon) was 28.1 µM. It also gave a TGI (SK-MEL-5 melanoma) of 31.7 µM, a TGI (UO-31 renal) of 6.77 µM and a TGI (IGROV1 ovarian) of 22.2 µM. For the same molecule, the GI50 (SK-OV-3 ovarian) was 3.2 µM, the TGI (SK-OV-3 ovarian) was 10.1 µM and the TGI (OVCAR-8 ovarian) was 27.3 µM. The TGI (HOP-18 NSCLC) was 37.1 µM, the GI50 (ACHN renal) was greater than 100 µM and the TGI (ACHN renal) was greater than 100 µM. It also gave a GI50 (A498 renal) greater than 100 µM, a TGI (A498 renal) greater than 100 µM and a TGI (TK-10 renal) of 33.4 µM. For the same molecule, the TGI (HOP-62 NSCLC) was 15.2 µM, the GI50 (HCC-2998 colon) was 20.6 µM and the TGI (HCC-2998 colon) was 36.6 µM. It also gave a TGI (SK-MEL-28 melanoma) of 30.1 µM, a TGI (DMS 273 small cell lung) of 31.7 µM and a TGI (U251 CNS) of 18.7 µM. For the same molecule, the TGI (SF-268 CNS) was 40.7 µM, the TGI (HL-60(TB) leukemia) was 22.3 µM and the GI50 (786-0 renal) was 16.6 µM. It also gave a TGI (786-0 renal) of 31.8 µM, a GI50 (NCI-H460 lung) greater than 100 µM and a TGI (NCI-H460 lung) greater than 100 µM. The TGI (NCI-H522 lung) was 28.8 µM, the TGI (RXF 393 renal) was 29 µM and the TGI (OVCAR-3 ovarian) was 31.2 µM. It also gave a GI50 (RXF-631 renal) of 7.22 µM, a TGI (RXF-631 renal) of 25.7 µM and a TGI (SNB-78 CNS) of 32.7 µM. The GI50 (SNB-75 CNS) was 17.7 µM, the TGI (SNB-75 CNS) was 31.9 µM and the TGI (CCRF-CEM leukemia) was 10.2 µM.
